Data on 22 compounds can be found in ChEMBL document CHEMBL3045644, “Synthesis anti-inflammatory and anticancer activity evaluation of some pyrazole and oxadiazole derivatives” (2012).

The inhibition in vivo is the percentage by which the read-out fell short of the control.

Common to all, as to assay type: functional
In one experiment the test system is Rattus norvegicus. As to the kind of experiment: Anti-inflammatory activity in Charles Foster albino Rattus norvegicus (rat) assessed as inhibition of carrageenan-induced paw edema at 50 mg/kg, po […] measured up to 3 hr relative to control. On the technique in general: The carrageenan paw model is a standard test of acute inflammation.

Another experiment has as its system HepG2. The experiment can be described thus: Growth inhibition of Homo sapiens (human) HepG2 cells at 10 uM after 48 hr by SRB assay. The note with it: HepG2, 48 h, read-out: GI. For orientation: In SRB staining, fixed cells bind dye roughly in proportion to their protein.
Another experiment has as its system HCT-15. As to the kind of experiment: Growth inhibition of Homo sapiens (human) HCT15 cells at 10 uM after 48 hr by SRB assay. The note with it: HCT-15, 48 h, read-out: GI.
The subject of a further experiment is T47D. The experiment can be described thus: Growth inhibition of Homo sapiens (human) T47D cells at 10 uM after 48 hr by SRB assay. The following applies: read-out: GI.
Another experiment concerns PA-1. The experiment can be described thus: Growth inhibition of Homo sapiens (human) PA1 cells at 10 uM after 48 hr by SRB assay. The following applies: PA-1, 48 h, read-out: GI.
For the next experiment, the system named is NCI-H522. The experiment can be described thus: Growth inhibition of Homo sapiens (human) NCI-H522 cells at 10 uM after 48 hr by SRB assay. The note with it: NCI-H522, 48 h, read-out: GI.

As to `CC(C)Cc1ccc(C(C)C(=O)O)cc1` (centres undefined) [IBUPROFEN], the inhibition in vivo at 50 mg/kg with Rattus norvegicus turned out to be 39%.
As to `CN(C)c1ccc(C2CC(c3cccnc3)=NN2)cc1` (centres undefined), the inhibition of growth at 10 µM in the experiment with HepG2 was 35%; with HCT-15, 6%; with T47D, 15%; in the experiment on PA-1 it was 36%; in the experiment with NCI-H522, 25%. Also, the inhibition in vivo at 50 mg/kg in the experiment with Rattus norvegicus is 22%.
As to `CN(C)c1ccc(C2CC(c3cccnc3)=NN2c2ccccc2)cc1` (centres undefined), the inhibition of growth at 10 µM with HepG2 is 32%; in the experiment with HCT-15, 1%; in the experiment with T47D, 33%; with PA-1, 20%; with NCI-H522 it was 20%. Besides, the inhibition in vivo at 50 mg/kg in the experiment with Rattus norvegicus is 34%.
For `COc1cc(-c2nc(-c3ccccn3)no2)ccc1O`, the inhibition of growth at 10 µM in the experiment with HepG2 was found to be 39%; in the experiment on HCT-15, 3%; in the experiment with T47D, 33%; with PA-1, 30%; in the experiment with NCI-H522, 48%. Further, the inhibition in vivo at 50 mg/kg with Rattus norvegicus is 24%.
Take `COc1ccc(OC)c(-c2nc(-c3cnccn3)no2)c1`: the inhibition of growth at 10 µM with HepG2 stood at 17%; with HCT-15, 7%; in the experiment with T47D it was 41%; in the experiment on PA-1, 26%; with NCI-H522 it was 23%. Also, the inhibition in vivo at 50 mg/kg in the experiment on Rattus norvegicus was 11%.
Take `C[C@@H]1C[C@@H]([C@H](O)CC2CC(=O)NC(=O)C2)C(=O)[C@@H](C)C1` [CYCLOHEXIMIDE]: the inhibition of growth at 10 µM came out at 5% in the experiment with HepG2; 3% in the experiment on HCT-15; 9% with T47D; 51% in the experiment with PA-1; 13% in the experiment on NCI-H522.
For `O=c1[nH]cc(F)c(=O)[nH]1` [FLUOROURACIL], the inhibition of growth at 10 µM stood at 18% in the experiment on HepG2; 8% in the experiment on HCT-15; 5% in the experiment on T47D; 10% in the experiment with PA-1; 24% in the experiment on NCI-H522.
With `COc1ccc(OC)c(C2CC(c3ccccn3)=NN2)c1` (centres undefined), the inhibition of growth at 10 µM with HepG2 amounted to 23%; in the experiment on HCT-15, 10%; in the experiment on T47D, 26%; in the experiment with PA-1, 25%; in the experiment with NCI-H522, 28%. Besides, the inhibition in vivo at 50 mg/kg in the experiment on Rattus norvegicus was determined as 15%.
As for `COc1cc(-c2nc(-c3ccncc3)no2)ccc1O`, the inhibition of growth at 10 µM was determined as 13% with HepG2; 5% in the experiment on HCT-15; 34% in the experiment with T47D; 32% in the experiment on PA-1; 25% in the experiment on NCI-H522. The inhibition in vivo at 50 mg/kg in the experiment with Rattus norvegicus was 14%.
For `COc1ccc(OC)c(C2CC(c3ccncc3)=NN2)c1` (centres undefined), the inhibition of growth at 10 µM in the experiment with HepG2 was 34%; in the experiment with HCT-15, 28%; with T47D it was 19%; with PA-1, 24%; with NCI-H522 it was 24%. For the same compound, the inhibition in vivo at 50 mg/kg in the experiment with Rattus norvegicus stood at 13%.
Take `COc1ccc(OC)c(C2CC(c3ccncc3)=NN2c2ccccc2)c1` (centres undefined): the inhibition of growth at 10 µM in the experiment on HepG2 was 32%; in the experiment with HCT-15, 5%; in the experiment on T47D it was 37%; in the experiment with PA-1, 31%; with NCI-H522, 29%. Also, in the experiment with Rattus norvegicus, the inhibition in vivo at 50 mg/kg is 18%.
As to `CN(C)c1ccc(C2CC(c3ccccn3)=NN2c2ccccc2)cc1` (centres undefined), the inhibition of growth at 10 µM in the experiment on HepG2 stood at 24%; in the experiment on HCT-15, 12%; in the experiment with T47D, 41%; in the experiment with PA-1 it was 16%; with NCI-H522, 26%. Moreover, the inhibition in vivo at 50 mg/kg with Rattus norvegicus turned out to be 35%.
For `COc1ccc(OC)c(C2CC(c3cccnc3)=NN2c2ccccc2)c1` (centres undefined), the inhibition of growth at 10 µM in the experiment on HepG2 amounted to 26%; in the experiment with HCT-15, 7%; in the experiment on T47D it was 22%; in the experiment on PA-1, 32%; in the experiment on NCI-H522, 32%. Further, the inhibition in vivo at 50 mg/kg with Rattus norvegicus is 24%.
As to `CN(C)c1ccc(C2CC(c3ccccn3)=NN2)cc1` (centres undefined), the inhibition of growth at 10 µM amounted to 29% with HepG2; 5% in the experiment on HCT-15; 3% with T47D; 21% in the experiment on PA-1; 34% in the experiment on NCI-H522. For the same compound, the inhibition in vivo at 50 mg/kg in the experiment with Rattus norvegicus came out at 18%.
Consider `COc1cc(-c2nc(-c3cnccn3)no2)ccc1O`, for which the inhibition of growth at 10 µM with HepG2 turned out to be 20%; in the experiment with HCT-15, 1%; in the experiment with T47D it was 35%; with PA-1 it was 20%; with NCI-H522, 20%. Further, in the experiment on Rattus norvegicus, the inhibition in vivo at 50 mg/kg stood at 26%.
With `COc1ccc(OC)c(C2CC(c3ccccn3)=NN2c2ccccc2)c1` (centres undefined), the inhibition of growth at 10 µM came out at 20% in the experiment with HepG2; 9% in the experiment on HCT-15; 12% with T47D; 18% in the experiment with PA-1; 16% in the experiment with NCI-H522. For the same compound, the inhibition in vivo at 50 mg/kg in the experiment on Rattus norvegicus turned out to be 27%.
For the compound `COc1ccc(OC)c(-c2nc(-c3ccncc3)no2)c1`, the inhibition of growth at 10 µM in the experiment with HepG2 was 27%; with HCT-15, 2%; in the experiment on T47D, 25%; in the experiment with PA-1, 19%; with NCI-H522 it was 10%. In addition, the inhibition in vivo at 50 mg/kg in the experiment on Rattus norvegicus worked out at 35%.
As to `COc1ccc(OC)c(C2CC(c3cccnc3)=NN2)c1` (centres undefined), the inhibition of growth at 10 µM in the experiment with HepG2 was 34%; in the experiment on HCT-15, 4%; with T47D, 13%; in the experiment with PA-1 it was 31%; in the experiment with NCI-H522 it was 40%. For the same compound, the inhibition in vivo at 50 mg/kg with Rattus norvegicus is 15%.
For `COc1ccc(OC)c(-c2nc(-c3ccccn3)no2)c1`, the inhibition of growth at 10 µM with HepG2 came out at 33%; in the experiment on HCT-15, 5%; in the experiment on T47D, 37%; in the experiment with PA-1 it was 25%; in the experiment on NCI-H522 it was 23%. Further, in the experiment with Rattus norvegicus, the inhibition in vivo at 50 mg/kg was determined as 28%.
Consider `CN(C)c1ccc(C2CC(c3ccncc3)=NN2c2ccccc2)cc1` (centres undefined), for which the inhibition of growth at 10 µM in the experiment with HepG2 worked out at 35%; with HCT-15, 6%; in the experiment on T47D, 7%; with PA-1, 24%; in the experiment with NCI-H522, 32%. The inhibition in vivo at 50 mg/kg in the experiment with Rattus norvegicus was determined as 32%.
Take `CN(C)c1ccc(C2CC(c3ccncc3)=NN2)cc1` (centres undefined): the inhibition of growth at 10 µM is 29% with HepG2; 3% in the experiment on HCT-15; 21% in the experiment on T47D; 26% in the experiment with PA-1; 28% in the experiment on NCI-H522. Also, the inhibition in vivo at 50 mg/kg in the experiment on Rattus norvegicus came out at 0%.
Take `O=P1(N(CCCl)CCCl)NCCCO1` (centres undefined) [CYCLOPHOSPHAMIDE ANHYDROUS]: the inhibition of growth at 10 µM in the experiment with HepG2 came to 14%; in the experiment on HCT-15, 5%; with T47D it was 18%; in the experiment on PA-1, 4%; in the experiment with NCI-H522 it was 4%.
